One compound from article PMC8217011, “Natural brominated phenoxyphenols kill persistent and biofilm-incorporated cells of MRSA and other pathogenic bacteria” (Applied Microbiology and Biotechnology, 2020) can be followed below.

For assay [1], the system named is MRSA vector control strain harbouring empty plasmid pLA03. The assay is described as follows: MIC in recombinant strain, empty vector control. In kind it is cell-based. The note with it: Staphylococcus aureus. The procedure:
(§1) To corroborate the role as potential determinants of resistance, mtlA and tetR were overexpressed under control of an anhydrotetracycline (Atc)-inducible promoter, and the effect on sensitivity toward 3-bromo-PP was analysed (Fig. 4e). […] However, induction of mtlA or tetR expression in the presence of Atc strongly rendered the cells more susceptible to 3-bromo-PP resulting in MICs of 0.019 μM for mtlA and 0.078 μM for tetR overexpression, respectively. This translates into a […] and 8-fold increased sensitivity during mtlA or tetR overexpression, respectively, compared with the empty vector control (Fig. 4e).

Assay [2] deals with MRSA strain containing pLA03::mtlA. The assay is described as follows: MIC in recombinant strain, mtlA overexpression. In kind it is cell-based, Staphylococcus aureus. Conditions: for MIC: Staphylococcus aureus, MRSA. The procedure: as §1
Assay [3] has as its system MRSA strain containing pLA03::tetR. Briefly: MIC in recombinant strain, tetR overexpression. The class given is cell-based, Staphylococcus aureus. Conditions: for MIC: Staphylococcus aureus, MRSA. As to the method:
as §1

The subject of a further assay is MtlA. The assay is described as follows: Global proteome analysis of sublethally treated cells. The note with it: Mu50 cells, sublethal concentration allowing ca. 50% residual growth. The class given is cell-based, Staphylococcus aureus. As to the method: After in-solution digestion (ISD) peptides were desalted on home-made C18 StageTips (Rappsilber et al. [2007]). Briefly, the peptide solution was passed over the MeOH pre-conditioned and 0.5% formic acid (FA) equilibrated StageTip. Immobilised peptides were then washed twice with 0.5% (v/v) FA. Washed peptides were eluted from the StageTips with 80% (v/v) ACN and 0.5% (v/v) FA and dried using a vacuum concentrator (Eppendorf). Before LC-MS, peptide samples were resuspended in 10 μL 0.1% (v/v) FA.
LC-MS/MS experiments were performed on an Orbitrap Elite instrument (Michalski et al. [2012]) (Thermo) that was coupled to an EASY-nLC 1000 liquid chromatography (LC) system (Thermo). […] Product ion spectra were recorded in a data-dependent fashion in the ion trap (ITMS) in a variable scan range and at a rapid scan rate. […] Peptides were analysed using a repeating cycle consisting of a full precursor ion scan (1.0 × 10^6 ions or 50 ms) followed by 15 product ion scans (1.0 × 10^4 ions or 100 ms), where peptides are isolated based on their intensity in the full survey scan (threshold of 500 counts) for tandem mass spectrum (MS2) generation that permits peptide sequencing and identification. […]
RAW spectra were submitted to an Andromeda (Cox et al. [2011]) search in MaxQuant (version 1.5.3.30) using the default settings (Cox and Mann [2008]). Label-free quantification was activated (Cox et al. [2014]). […]

Where [4] appears, read: induced with Atc (1 μg/mL anhydrotetracycline).

For the compound `Oc1c(Br)cc(Br)c(Br)c1Oc1ccc(Br)cc1Br` [3-bromo-PP, 3,4,6-tribromo-2-(2′,4′-dibromophenoxy)phenol], the MIC (in general, the least concentration at which growth counts as inhibited) in assay [1] was around 0.625 µM; in assay [2] (setting [4]) it was 0.019 µM; in assay [2] (non-induced) it was 0.312 µM; in assay [3] (setting [4]), 0.078 µM; in assay [3] (non-induced), 0.312 µM. The “increased sensitivity compared with the empty vector control” value in assay [2] (mtlA overexpression) is on record as 33 fold; in assay [3] (tetR overexpression), 8 fold. For the same compound, the “downregulation of MtlA protein” value in the assay with MtlA was “approx. 2.5 fold”.
